Here are results for 16 compounds from PMC7949145 (The Journal of Biological Chemistry, 2021).

“Also recorded” adds a separate entry of the source. Read-outs that look alike come from different tables or passages of the source.

Assay [1] concerns the target T1, Mtr LpqY (Mycolicibacterium thermoresistibile, UniProt G7CES0). Nature of the assay: Thermal shift assay (SYPRO Orange) of potential ligands. The class given is binding, Mycobacterium thermoresistible. The conditions noted are these: ligand 10 mM; for ΔTm: Mtr LpqY 2.6 μM, shift relative to protein alone (Tm 66.0 °C), no unit in table, °C.
The target in assay [2] is T1, Mtr LpqY. Nature of the assay: Saturation transfer difference (STD) NMR. The conditions noted are these: protein 25 μM, ligand 1 mM, PBS D2O pH 7.4, 288 K. The class given is binding, Mycobacterium thermoresistible. On the procedure: However, despite numerous efforts, we were unable to obtain a crystal structure of Mtr LpqY in complex with 6-azido-trehalose. Therefore, to further our understanding into the mode of ligand binding, the binding epitope of 6-azido-trehalose with Mtr LpqY was determined in solution by saturation transfer difference (STD) NMR experiments, as described in the Methods section.
All the STD NMR experiments were performed in PBS D2O buffer, pH 7.4. […] STD NMR spectra were acquired on a Bruker Avance 500.13 MHz at 288 K. The on- and off-resonance spectra were acquired using a train of 50 ms Gaussian selective saturation pulses using a variable saturation time from 0.5 s to 5 s, and a relaxation delay (D1) of 4 s. The water signal was suppressed using the watergate technique ([41]), whereas the residual protein resonances were filtered using a T1ρ-filter of 40 ms. All the spectra were acquired with a spectral width of 8 kHz and 24K data points using 512 scans. The on-resonance spectra were acquired by saturating at 0.80 (aliphatic hydrogens) or 7.20 ppm (aromatic hydrogens), as average chemical shifts predicted from shiftX2 ([42]) for the aliphatic and aromatic residues present in the binding site of Mtr LpqY, whereas the off-resonance spectra were acquired by saturating at 40 ppm. […]

The target of assay [3] is T1, Mtr LpqY. The experiment in a line: Microscale thermophoresis (MST), wild-type protein. Type of assay: binding, Mycobacterium thermoresistible. The conditions noted are these: for Kd: 21 °C, wild-type Mtr LpqY 500 nM, mean ± SEM, at least three experiments. Background: MST reads how a fluorescent partner responds to local heating, with and without ligand.
The subject of assay [4] is mycobacteria. More on the design: method as in PMID 22978752. The conditions noted are these: cited from earlier work.

T1 sequence (G7CES0 29-471): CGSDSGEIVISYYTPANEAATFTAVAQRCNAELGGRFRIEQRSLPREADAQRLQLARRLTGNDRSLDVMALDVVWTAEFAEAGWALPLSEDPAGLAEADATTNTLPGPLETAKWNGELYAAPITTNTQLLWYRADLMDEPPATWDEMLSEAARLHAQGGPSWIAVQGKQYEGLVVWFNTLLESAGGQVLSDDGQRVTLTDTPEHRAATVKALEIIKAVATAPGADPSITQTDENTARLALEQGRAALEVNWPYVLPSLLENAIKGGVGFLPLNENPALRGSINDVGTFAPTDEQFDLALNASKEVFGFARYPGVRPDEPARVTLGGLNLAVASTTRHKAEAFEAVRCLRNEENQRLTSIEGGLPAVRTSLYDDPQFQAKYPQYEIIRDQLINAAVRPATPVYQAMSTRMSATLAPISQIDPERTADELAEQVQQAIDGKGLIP

Turning to `OC[C@H]1O[C@H](O[C@H]2[C@H](O)[C@@H](CO)OC(O)[C@@H]2O)[C@H](O)[C@@H](O)[C@@H]1O` (stereo partly shown) [Nigerose], in assay [1], the “Recognition in the thermal shift screen (in words)” value is reported as “reduced ΔTm shifts” and the ΔTm was determined as 5.1 ± 0.1.
Consider `NC[C@H]1O[C@H](O[C@H]2O[C@H](CO)[C@@H](O)[C@H](O)[C@H]2O)[C@H](O)[C@@H](O)[C@@H]1O` [6-amino-6-deoxy-trehalose, 6-amino-6-deoxy-α,α′-trehalose], for which the ΔTm in assay [1] was found to be 7.0 ± 0.1.
As to `[N-]=[N+]=NC[C@H]1O[C@H](O[C@H]2O[C@H](CO)[C@@H](O)[C@H](O)[C@H]2O)[C@H](O)[C@@H](O)[C@@H]1O` [6-azido-6-deoxy-trehalose, 6-azido-6-deoxy-α,α′-trehalose], the “Binding by STD NMR” value in assay [2] was “Binding was confirmed”. This compound gave an equilibrium dissociation constant (Kd) in assay [3] (Kd) of 443 ± 5.3 µM. Also, the “Import into the cytosol of mycobacteria” value in assay [4] is “imported and found in the cytosol”.
With `OCC1O[C@H](O[C@H]2OC(CO)[C@H](O)[C@H](O)C2O)C(O)[C@@H](O)[C@H]1O` (stereo partly drawn) [Galactotrehalose, α-D-galactopyranosyl-(1→1)-α-D-glucopyranoside], in assay [1], the ΔTm is on record as 6.1 ± 0.6.
As to `OC[C@H]1O[C@H](OC[C@H]2OC(O)[C@H](O)[C@@H](O)[C@@H]2O)[C@H](O)[C@@H](O)[C@@H]1O` (stereo partly shown) [Isomaltose], in assay [1], the “Recognition in the thermal shift screen (in words)” value is “reduced ΔTm shifts” and the ΔTm was 4.1 ± 0.2.
With `[N-]=[N+]=N[C@H]1[C@H](O)[C@@H](O)[C@@H](O[C@H]2O[C@H](CO)[C@@H](O)[C@H](O)[C@H]2O)O[C@@H]1CO` [4-azido-4-deoxy-trehalose, 4-azido-4-deoxy-α,α′-trehalose], the Kd in assay [3] (read-out: Kd) was 247 ± 7.1 µM. Also, the “Import into the cytosol of mycobacteria” value in assay [4] is “imported and found in the cytosol”. In assay [1], the “Recognition in the thermal shift screen (in words)” value is reported as “comparable to trehalose” and the ΔTm stood at 10.2 ± 0.1.
Consider `[N-]=[N+]=N[C@@H]1[C@@H](O)[C@@H](O[C@H]2O[C@H](CO)[C@@H](O)[C@H](O)[C@H]2O)O[C@H](CO)[C@H]1O` [3-azido-3-deoxy-trehalose], for which, in assay [3] (read-out: Kd), the equilibrium dissociation constant (Kd) is 475 ± 17.2 µM. In assay [4], the “Import into the cytosol of mycobacteria” value was “is not”. Further, in assay [1], the ΔTm was 6.7 ± 0.2.
Consider `OC[C@H]1O[C@H](O[C@H]2O[C@H](CO)[C@@H](O)[C@H](O)[C@H]2O)[C@H](O)[C@@H](O)[C@@H]1O` [Trehalose, α-D-glucopyranosyl-α-D-glucopyranoside], for which, in assay [2], the “Binding by STD NMR” value is “Binding was confirmed”.
Turning to `O=P(O)(O)OC[C@H]1O[C@H](O[C@H]2O[C@H](CO)[C@@H](O)[C@H](O)[C@H]2O)[C@H](O)[C@@H](O)[C@@H]1O` [Trehalose-6-phosphate], the ΔTm in assay [1] was found to be 3.7 ± 0.2.
Turning to `[N-]=[N+]=N[C@H]1[C@@H](O[C@H]2O[C@H](CO)[C@@H](O)[C@H](O)[C@H]2O)O[C@H](CO)[C@@H](O)[C@@H]1O` [2-azido-2-deoxy-trehalose, 2-azido-2-deoxy-α,α′-trehalose], the Kd in assay [3] (read-out: Kd) was 1916 ± 7.7 µM. Moreover, the “Import into the cytosol of mycobacteria” value in assay [4] was “imported and found in the cytosol”. In assay [1], the “Recognition in the thermal shift screen (in words)” value was “only a minor shift” and the ΔTm was 1.7 ± 0.1.
`OC[C@H]1O[C@H](O[C@H]2[C@H](O)[C@@H](O)C(O)O[C@@H]2CO)[C@H](O)[C@@H](O)[C@@H]1O` (mixture of isomers) [maltose]: in assay [1], the “Recognition in the thermal shift screen (in words)” value is reported as “reduced ΔTm shifts; also recorded: inability”.
Consider `OC[C@H]1O[C@H](O[C@H]2O[C@H](CO)[C@@H](O)[C@H](O)[C@H]2O)[C@@H](O)[C@@H](O)[C@@H]1O` [Mannotrehalose, α-D-mannopyranosyl-(1→1)-α-D-glucopyranoside], for which the ΔTm in assay [1] worked out at 5.9 ± 0.3.
With `OC[C@H]1O[C@H](O[C@H]2C(O)O[C@H](CO)[C@@H](O)[C@@H]2O)[C@H](O)[C@@H](O)[C@@H]1O` (stereo partly shown) [Kojibiose], the “Fold reduction in binding affinity (increase in Kd) compared with trehalose” value in assay [3] is reported as about 30 fold. Further, the Kd in assay [3] (read-out: Kd) worked out at 2350 ± 123 µM. In assay [1], the “Recognition in the thermal shift screen (in words)” value is “reduced ΔTm shifts” and the ΔTm is listed as 7.9 ± 0.2.
For `C[N+](C)(C)CCOP(=O)([O-])OC[C@H](O)CO` [glycerophosphocholine], the “Recognition in the thermal shift screen (in words)” value in assay [1] is given as “did not observe binding”.
Regarding `OC[C@H]1OC(O)[C@H](O)[C@@H](O)[C@@H]1O` (stereo partly shown) [glucose], the “Recognition in the thermal shift screen (in words)” value in assay [1] is given as “no influence on the ΔTm”.
For the compound `OC[C@H]1O[C@@H](O[C@H]2O[C@H](CO)[C@@H](O)[C@H](O)[C@H]2O)[C@H](O)[C@@H](O)[C@@H]1O` [α,β-trehalose], the ΔTm in assay [1] is recorded as 3.7 ± 0.1.

For orientation: Kd means a measure of binding affinity in units of concentration.
